Measurements published in publication PMC7071059, “Targeting Receptor Tyrosine Kinase VEGFR-2 in Hepatocellular Cancer: Rational Design, Synthesis and Biological Evaluation of 1,2-Disubstituted Benzimidazoles” (Molecules, 2020).

Legend:
HepG2 cells [1] = assay: Analysis of cell cycle distribution, flow cytometry of propidium iodide-stained nuclei; type: cell-based, human; settings: HepG2, 2 µM, 48 h
Procedure: Based on the promising antiproliferative activity and antiangiogenic activity of series 17, compound 17a was further assayed for its effect on the cell cycle distribution by flow cytometric analyses of propidium iodide-stained nuclei at 2 µM. Cell cycle parameters were compared for HepG2 cells with DMSO as control and after treatment with 17a and incubation for 48 h, and the results were depicted in Figure 8.
After treatment with test compounds for 48 h, cells (10^5 cells) were collected by trypsinization and washed twice with ice-cold PBS (pH 7.4). Cells were resuspended in two milliliters of 60% ice-cold ethanol and incubated at 4 °C for 1 h for fixation. Fixed cells were washed twice again with PBS (pH 7.4) and resuspended in 1 mL of PBS containing 50 µg/mL RNAase A and 10 µg/mL propidium iodide (PI). After 20 min of incubation in dark at 37 °C, cells were analyzed for DNA contents using flow cytometry analysis using an FL2 (λex/em 535/617 nm) signal detector (ACEA Novocyte™ flowcytometer, ACEA Biosciences Inc., San Diego, CA, USA). For each sample, 12,000 events were acquired. The cell cycle distribution was calculated using ACEA NovoExpress™ software (ACEA Biosciences Inc., San Diego, CA, USA).

HepG2 cells [2] = assay: Apoptosis assay, Annexin V-FITC/PI flow cytometry; type: cell-based, human; settings: 48 h; for early apoptotic phase (Q4): control 0.80%; for late apoptotic phase (Q2): control 4.59%
From the text: Moreover, in order to examine the effect of compound 17a on cell apoptosis (programed cell death), the morphological markers of apoptosis of the HepG2 cell line were examined before and after treatment with 17a. This assay is based on the fact that cells performing apoptosis translocate their phosphatidylserine (PS) phospholipid to the cell surface, which, in turn, can be easily detected by staining with a fluorescent conjugate of annexin V, followed by flow cytometry analysis. Concurrently, the HepG2 cells were stained with propidium iodide (PI), which enters only cells with damaged plasma membranes. This stain allows the discrimination between early apoptotic cells (positive for PS, but negative for PI) from late apoptotic and necrotic cells (positive for both PS and PI).
Apoptosis and necrosis cell populations were determined using an Annexin V-FITC apoptosis detection kit (Abcam Inc., Cambridge Science Park, Cambridge, UK) coupled with 2 fluorescent channels flowcytometry. After treatment with test compounds for 48 h, cells (10^5 cells) were collected by trypsinization and washed twice with ice-cold PBS (pH 7.4). Then, cells were incubated in the dark with 0.5 ml of Annexin V-FITC/PI solution for 30 min in the dark at room temperature, according to the manufacturer’s protocol. After staining, cells were injected via ACEA Novocyte™ flowcytometer (ACEA Biosciences Inc., San Diego, CA, USA) and analyzed for FITC and PI fluorescent signals using FL1 and FL2 signal detectors, respectively (λex/em 488/530 nm for FITC and λex/em 535/617 nm for PI). For each sample, 12,000 events were acquired, and positive FITC and/or PI cells were quantified by quadrant analysis and calculated using ACEA NovoExpress™ software (ACEA Biosciences Inc., San Diego, CA, USA).

PDGFR-β = PDGFR-β (Homo sapiens, UniProt P09619); assay: Biochemical kinase assay
Procedure: (§1) This assay was carried out using the VEGFR-2 kinase enzyme system or FGFR-1 kinase enzyme system and Kinase-Glo Plus luminescence kinase (Promega) kits according to the manufacturers´ protocols. This assay evaluated the activity of kinase by measuring the amount of ATP remaining in solution after a kinase reaction. The luminescent signal from the assay was related to the quantity of ATP available, which was inversely proportional to the amount of kinase activity. […] Subsequently, serial dilutions were carried out, and 5 µL of the dilution was added to a 50 µL reaction. The enzymatic reactions were performed at 30 °C for 45 minutes. […] After the enzymatic reaction, 50 µL of Kinase-Glo Plus Luminescence kinase assay solution was added to each reaction, and the plates were incubated for 15 minutes at room temperature. The luminescence signal was measured using a Tecan–spark multimode microplate reader. The difference between luminescence intensities in the absence of Kinase (Lut) and in the presence of Kinase (Luc) was defined as 100% activity (Lut − Luc). Using a luminescence signal (Lu) in the presence of the compound, % activity was calculated as: % activity = {(Lut − Lu)/(Lut − Luc)}×100%, where Lu = the luminescence intensity in the presence of the compound.

FGFR-1 = FGFR-1 (Homo sapiens, UniProt P11362); assay: Biochemical kinase assay (Kinase-Glo Plus luminescence)
Chain of FGFR-1 (P11362 22-822): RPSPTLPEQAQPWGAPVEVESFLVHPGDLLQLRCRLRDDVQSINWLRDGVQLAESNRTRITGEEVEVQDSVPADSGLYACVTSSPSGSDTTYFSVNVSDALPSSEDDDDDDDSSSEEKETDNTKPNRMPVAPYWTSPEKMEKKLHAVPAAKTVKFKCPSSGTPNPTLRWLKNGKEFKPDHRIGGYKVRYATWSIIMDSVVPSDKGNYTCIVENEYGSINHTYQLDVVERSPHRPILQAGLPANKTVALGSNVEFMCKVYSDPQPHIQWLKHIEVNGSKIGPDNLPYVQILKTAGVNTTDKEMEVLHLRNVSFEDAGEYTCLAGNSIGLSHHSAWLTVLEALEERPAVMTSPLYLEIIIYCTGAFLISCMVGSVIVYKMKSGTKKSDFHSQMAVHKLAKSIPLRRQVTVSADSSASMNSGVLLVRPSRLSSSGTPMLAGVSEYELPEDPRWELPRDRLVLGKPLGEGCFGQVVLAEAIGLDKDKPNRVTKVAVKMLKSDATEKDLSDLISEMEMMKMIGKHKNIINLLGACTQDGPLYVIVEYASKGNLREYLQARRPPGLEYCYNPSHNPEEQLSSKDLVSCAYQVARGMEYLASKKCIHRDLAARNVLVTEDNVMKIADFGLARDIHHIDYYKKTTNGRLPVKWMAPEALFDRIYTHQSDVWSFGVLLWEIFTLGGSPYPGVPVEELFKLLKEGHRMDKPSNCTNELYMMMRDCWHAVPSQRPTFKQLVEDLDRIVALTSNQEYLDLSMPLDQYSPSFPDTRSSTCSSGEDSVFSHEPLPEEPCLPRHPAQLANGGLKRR
Procedure: as §1

Chain of PDGFR-β (P09619 33-1106): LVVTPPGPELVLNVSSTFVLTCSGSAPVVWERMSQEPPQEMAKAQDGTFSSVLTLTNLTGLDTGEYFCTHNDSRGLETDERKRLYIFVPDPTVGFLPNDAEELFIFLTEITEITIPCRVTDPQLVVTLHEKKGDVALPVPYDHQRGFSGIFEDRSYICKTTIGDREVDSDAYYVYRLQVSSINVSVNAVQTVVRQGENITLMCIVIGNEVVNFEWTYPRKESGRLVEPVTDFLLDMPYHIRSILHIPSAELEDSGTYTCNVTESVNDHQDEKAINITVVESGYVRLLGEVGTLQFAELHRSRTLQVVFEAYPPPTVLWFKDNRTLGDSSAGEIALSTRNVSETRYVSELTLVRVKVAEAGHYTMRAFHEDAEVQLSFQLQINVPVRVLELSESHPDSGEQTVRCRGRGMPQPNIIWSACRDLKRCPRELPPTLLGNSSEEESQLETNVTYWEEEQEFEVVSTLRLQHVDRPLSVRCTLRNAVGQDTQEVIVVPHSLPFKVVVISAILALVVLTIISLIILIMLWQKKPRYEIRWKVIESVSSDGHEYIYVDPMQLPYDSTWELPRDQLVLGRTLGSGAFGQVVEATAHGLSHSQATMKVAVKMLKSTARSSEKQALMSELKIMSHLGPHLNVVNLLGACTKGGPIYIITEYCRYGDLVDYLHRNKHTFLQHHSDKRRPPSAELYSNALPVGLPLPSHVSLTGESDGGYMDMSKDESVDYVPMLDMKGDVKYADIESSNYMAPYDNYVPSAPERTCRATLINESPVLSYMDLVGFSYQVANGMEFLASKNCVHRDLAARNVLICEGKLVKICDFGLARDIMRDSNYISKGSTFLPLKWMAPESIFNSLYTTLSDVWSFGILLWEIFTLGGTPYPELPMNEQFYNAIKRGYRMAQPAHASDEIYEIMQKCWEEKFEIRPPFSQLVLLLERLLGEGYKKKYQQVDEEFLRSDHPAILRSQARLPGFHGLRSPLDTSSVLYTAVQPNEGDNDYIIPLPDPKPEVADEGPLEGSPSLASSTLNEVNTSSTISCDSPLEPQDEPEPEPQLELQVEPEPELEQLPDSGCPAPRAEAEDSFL

CC(C)c1nc2ccccc2n1CC(=O)N/N=C/c1cccc(OCc2ccccc2)c1 [Compound 17a, (E)-N′-(3-(Benzyloxy)benzylidene)-2-(2-isopropyl-1H-benzo[d]imidazol-1-yl)acetohydrazide]
Freq S (HepG2 cells [1]): 26.96%
effect on the HepG2 cell cycle (HepG2 cells [1]): arrests the cell cycle at the G2/M phase
percent of cells accumulated in the G2 phase (Freq G2) (HepG2 cells [1]; control 13.43%): 25.86%
percent of cell distribution in the G1 phase (Freq G1) (HepG2 cells [1]; control 51.34%): 46.96%
early apoptotic phase (Q4) (HepG2 cells [2]; HepG2, 2 μM): 2.90%
late apoptotic phase (Q2) (HepG2 cells [2]; HepG2, 2 μM): 8.89%
early apoptotic phase (Q4) (HepG2 cells [2]; HepG2, 5 μM): 6.32%
late apoptotic phase (Q2) (HepG2 cells [2]; HepG2, 5 μM): 9.53%
IC50 (PDGFR-β): 50 ± 2 nM
IC50 (FGFR-1): 110 ± 4 nM
